The record followed here is patent US9737517B2, “Pharmaceutical use of hexahydro-dibenzo[a,g]quinolizine compounds” (SHANGHAI INSTITUTE OF MATERIA MEDICA, CHINESE ACADEMY OF …, priority 2013, dated 2017).

The target of one experiment is T1, α1A-AR (Homo sapiens, UniProt P35348).
T1 construct: expressed in transfected cells; host or cells: HEK293
T1 sequence (P35348 1-466): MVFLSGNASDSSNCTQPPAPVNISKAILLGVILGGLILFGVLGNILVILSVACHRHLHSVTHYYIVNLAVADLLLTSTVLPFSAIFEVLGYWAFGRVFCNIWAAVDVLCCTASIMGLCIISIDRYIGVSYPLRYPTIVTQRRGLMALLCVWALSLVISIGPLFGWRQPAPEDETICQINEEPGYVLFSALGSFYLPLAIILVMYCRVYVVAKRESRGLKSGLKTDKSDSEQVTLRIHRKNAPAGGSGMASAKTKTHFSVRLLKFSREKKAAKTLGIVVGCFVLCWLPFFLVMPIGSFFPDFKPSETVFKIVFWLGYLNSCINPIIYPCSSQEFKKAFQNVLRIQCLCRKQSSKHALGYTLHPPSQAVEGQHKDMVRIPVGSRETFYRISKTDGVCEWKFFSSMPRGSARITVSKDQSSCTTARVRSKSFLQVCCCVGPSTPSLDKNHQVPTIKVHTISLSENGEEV
In words: Tag-lite receptor binding assay, HEK293 cells expressing SNAP-α1A-AR. The settings on record: for IC50: Tag-lite binding, HEK293 SNAP-α1A-AR; for α1B/α1A: ratio of Tag-lite binding values. An excerpt: (§1) Tag-lite assay was used to study receptor binding activity. Tag-lite assay was a combination of SNAP-Tag and HTRF technology, and was used to analyze surface receptors on live cell. SNAPs were small tag fusion proteins which could irreversibly, specifically and covalently bind to substrates via benzylmethyl, and the substrates were benzylmethyl guanine and benzylmethyl cytosine. Substrates and various dyes formed derivatives, and through covalent reaction, the dye was labeled onto SANPs. Plasmid was constructed using pSNAP and α1-AR encoding gene. After transfection into cells, N-terminal fusion protein of SNAP and α1-AR was expressed. The substrate and HTRF fluorescent dye (donor compound Lumi4-Tb) formed a derivative which reacted with SANP-α1-AR fusion protein so that Tb was labeled onto α1-AR. After adding acceptor fluorescent dye-labeled ligand, the receptor and ligand binding experiment was performed.
(§2) HEK293 cells stably expressing SNAP-α1A-AR, SNAP-α1B-AR, SNAP-α1D-AR were seeded in 3 cm dishes, and cultured for 24 hours. 100 nM Tag-lite SNAP Lumi4Tb was added and incubated for 1 h in an incubator. Cells were detached and washed with a labeling buffer for 4 times, and then was added into a 384-well plate in a volume of 10 μL per well. […] After incubation at room temperature for 1 hour, fluorescence intensity changes caused by cell receptor and ligand changes were detected using 665 nm (acceptor) and 620 nm (donor) at same time.
(§3) After incubation with different drugs, the reaction rate of cells to 1-AR fluorescein-labeled known ligand was calculated as follows: Reaction rate %=(D−B)/(S−B)*100%
(§4) The reaction rate of the same drug at different doses was tested using GraphPad Prism software by non-linear regression analysis, and the dose-response curve was obtained and Ki values was measured. Data were obtained from three separate experiments, and each experiment includes three duplicate wells.

In a further experiment the target is T2, α1B-AR (Homo sapiens, UniProt P35368).
T2 construct: expressed in transfected cells; host or cells: HEK293
T2 sequence (P35368 1-520): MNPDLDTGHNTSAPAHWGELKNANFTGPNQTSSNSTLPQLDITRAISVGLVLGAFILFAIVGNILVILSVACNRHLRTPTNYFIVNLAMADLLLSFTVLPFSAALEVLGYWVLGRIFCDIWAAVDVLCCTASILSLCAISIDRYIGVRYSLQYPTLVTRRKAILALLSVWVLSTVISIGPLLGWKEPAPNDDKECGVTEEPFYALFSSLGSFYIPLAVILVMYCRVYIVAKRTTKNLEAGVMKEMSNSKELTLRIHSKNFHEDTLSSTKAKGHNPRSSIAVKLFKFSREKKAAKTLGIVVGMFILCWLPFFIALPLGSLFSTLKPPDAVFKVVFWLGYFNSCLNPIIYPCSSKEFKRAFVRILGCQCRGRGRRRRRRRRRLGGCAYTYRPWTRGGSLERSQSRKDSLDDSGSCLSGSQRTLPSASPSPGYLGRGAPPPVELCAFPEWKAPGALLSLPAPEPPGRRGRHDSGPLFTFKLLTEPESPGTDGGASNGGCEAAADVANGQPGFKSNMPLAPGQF
In words: Tag-lite receptor binding assay, HEK293 cells expressing SNAP-α1B-AR.
Description: as §1, §2, §3, §4

Another experiment has as its system urethra smooth muscle. In words: In vitro urethra smooth muscle experiment (norepinephrine-induced contraction). The conditions noted are these: for IC50: isolated rat prostatic urethra, norepinephrine 3×10^−4 mol/L; for Urethra inhibition rate (%): norepinephrine-induced contraction; for Aorta/Urethra: selectivity ratio of IC50 values. Further details: species or system Wistar rats; Urethra inhibition rate (%): concentration or dose not given beside the values. The protocol:
Healthy male Wistar rats were hit head to cause faint. The abdominal cavity and the pubic symphysis was quickly cut so as to quickly remove the prostatic urethra, which was immediately placed into a dish filled with 4° C. Kerbs-Henseleit solution (K-H solution). The surrounding tissue were carefully separated, and muscle strips about 3-5 mm were obtained, and the lower end was fixed onto a 20 mL of thermostatic bath and the upper end was connected onto a pressure transducer. Nutrient liquid was K-H solution, and carbogen (95% oxygen and 5% carbon dioxide) was aerated, and the bath temperature was 37° C., and resting tension applied was 0.5 g. The nutrient liquid was replaced every 6-8 mins. Until baseline stabilized, norepinephrine was added with a final concentration of 3×10^−4 mol/L in bath tube. When the contraction curve reached the highest point, it was rinsed immediately to recover to baseline levels. When baseline was stabilized, test drug with different concentrations was added respectively, and incubated 3-5 mins. 60 μL 1×10^−1 M norepinephrine was added with a final concentration of 3×10^−4 mol/L in bath tube, and the contraction curve was recorded.

Experiment [1] relates to vascular smooth muscle (thoracic aorta). In words: In vitro vascular smooth muscle experiment (norepinephrine-induced contraction of thoracic aorta rings). The settings on record: isolated rat thoracic aorta rings, norepinephrine 10^−7 mol/L. On the set-up: species or system Wistar rats. The protocol: Healthy male Wistar rats were hit head to cause faint. The abdominal cavity was quickly cut, and the thoracic aorta was taken out. The attached tissue was separated and cut into 2-3 mm vascular rings. The experiment was carried out in the same manner as in urethral smooth muscle experiment. The resting tension applied was 1 g, and when baseline was stabilized, norepinephrine was added with a final concentration of 10^−7 mol/L in bath tube. When the contraction curve reached the highest point, rinse was performed immediately to recover to baseline levels. When baseline was stabilized, test drug with different concentrations was added respectively, and incubated 3-5 mins. 20 μL 1×10^−4 M norepinephrine was added with a final concentration of 10^−7 mol/L in bath tube, and contraction curve was recorded.

Each structure is given as a SMILES string.

As a reminder, the IC50 is the point on the concentration scale where inhibition reaches its midpoint.

Turning to `COc1cc2c(cc1OCc1ccccc1)C[C@H]1c3cc4c(cc3CCN1C2)OCO4` [DC037016], the half-inhibitory concentration (IC50) on α1A-AR turned out to be 16.6 nM; on α1B-AR, 560 nM; with urethra smooth muscle it was 5.12 nM; in experiment [1] it was 10000 nM. The α1B/α1A at α1A-AR was 33.8. For the same compound, the “Urethra inhibition rate (%)” value with urethra smooth muscle (isolated rat urethra) is recorded as 38%. The Aorta/Urethra in the experiment with urethra smooth muscle (isolated rat tissues) came to 1953.
Consider `COc1cc2c(cc1OC)CN1CCc3cc4c(cc3[C@@H]1C2)OCO4` [DC037009, S-(−)-2,3-methylenedioxy-10,11-dimethoxy-5,8,13,13a-tetrahydro-6H-dibenzo[a,g]quinolizine], for which, at α1A-AR, the concentration for half-maximal inhibition (IC50) is 2.83 nM and the α1B/α1A is 45.3. At α1B-AR, the IC50 stood at 128 nM. The same compound came in with a half-maximal inhibitory concentration (IC50) with urethra smooth muscle of 1.66 nM. In the experiment with urethra smooth muscle (isolated rat tissues), the “selectivity (Aorta/Urethra) relative to Silodosin” value turned out to be 11 folds, the “selectivity (Aorta/Urethra) relative to tamsulosin” value was 1671 folds and the Aorta/Urethra is 873. Also, in the experiment on urethra smooth muscle (isolated rat urethra), the “urethra suppression rate compared with positive drugs” value is “comparable to that of the positive drugs” and the “Urethra inhibition rate (%)” value stood at 80%. The IC50 in experiment [1] came to 1420 nM.
On to `C[C@H](Cc1cc2c(c(C(N)=O)c1)N(CCCO)CC2)NCCOc1ccccc1OCC(F)(F)F` [Silodosin, reference compound], for which the IC50 on α1A-AR came out at 0.07 nM; at α1B-AR, 0.61 nM; in the experiment with urethra smooth muscle it was 0.82 nM; in experiment [1] it was 63 nM. The α1B/α1A at α1A-AR was found to be 8.7. Moreover, the “Urethra inhibition rate (%)” value with urethra smooth muscle (isolated rat urethra) worked out at 88%. In addition, the Aorta/Urethra in the experiment on urethra smooth muscle (isolated rat tissues) was determined as 76.8.
